According to ChEMBL document CHEMBL4334438, “Discovery of novel glycogen synthase kinase-3α inhibitors: Structure-based virtual screening, preliminary SAR and biological evaluation for treatment of acute myeloid leukemia” (Eur J Med Chem, 2019):

Columns and labels:
[1] = biological target: TGF-beta receptor type-2 (Homo sapiens) (UniProt P37173); experiment: Inhibition of human TGFBR2 (188 to end residues) assessed as residual activity at 1 uM using myelin basic protein as substrate measured after 120 mins in presence of [gamma33P]ATP by scintillation counting method relative to control
[2] = biological target: Tyrosine-protein kinase Lck (Homo sapiens) (UniProt P06239); experiment: Inhibition of recombinant full length human LCK assessed as residual activity at 1 uM using KVEKIGEGTYGVVYK as substrate after 40 mins in presence of [gamma-33ATP] by scintillation counting based radiometry assay relative to control
[3] = biological target: Protein kinase C epsilon type (Homo sapiens) (UniProt Q02156); experiment: Inhibition of recombinant human PKCepsilon (2 to end residues) assessed as residual activity at 1 uM using ERMRPRKRQGSVRRRV as substrate measured after 40 mins in presence of [gamma33P]ATP by scintillation counting method relative to control
[4] = biological target: Homeodomain-interacting protein kinase 3 (Homo sapiens) (UniProt Q9H422); experiment: Inhibition of human HIPK3 (161 to 562 residues) assessed as residual activity at 1 uM using myelin basic protein as substrate after 40 mins by [gamma-33ATP] radiometric assay relative to control
Homeodomain-interacting protein kinase 3 (Homo sapiens), sequence (Q9H422 whole entry, looked up, the tested form may be a part): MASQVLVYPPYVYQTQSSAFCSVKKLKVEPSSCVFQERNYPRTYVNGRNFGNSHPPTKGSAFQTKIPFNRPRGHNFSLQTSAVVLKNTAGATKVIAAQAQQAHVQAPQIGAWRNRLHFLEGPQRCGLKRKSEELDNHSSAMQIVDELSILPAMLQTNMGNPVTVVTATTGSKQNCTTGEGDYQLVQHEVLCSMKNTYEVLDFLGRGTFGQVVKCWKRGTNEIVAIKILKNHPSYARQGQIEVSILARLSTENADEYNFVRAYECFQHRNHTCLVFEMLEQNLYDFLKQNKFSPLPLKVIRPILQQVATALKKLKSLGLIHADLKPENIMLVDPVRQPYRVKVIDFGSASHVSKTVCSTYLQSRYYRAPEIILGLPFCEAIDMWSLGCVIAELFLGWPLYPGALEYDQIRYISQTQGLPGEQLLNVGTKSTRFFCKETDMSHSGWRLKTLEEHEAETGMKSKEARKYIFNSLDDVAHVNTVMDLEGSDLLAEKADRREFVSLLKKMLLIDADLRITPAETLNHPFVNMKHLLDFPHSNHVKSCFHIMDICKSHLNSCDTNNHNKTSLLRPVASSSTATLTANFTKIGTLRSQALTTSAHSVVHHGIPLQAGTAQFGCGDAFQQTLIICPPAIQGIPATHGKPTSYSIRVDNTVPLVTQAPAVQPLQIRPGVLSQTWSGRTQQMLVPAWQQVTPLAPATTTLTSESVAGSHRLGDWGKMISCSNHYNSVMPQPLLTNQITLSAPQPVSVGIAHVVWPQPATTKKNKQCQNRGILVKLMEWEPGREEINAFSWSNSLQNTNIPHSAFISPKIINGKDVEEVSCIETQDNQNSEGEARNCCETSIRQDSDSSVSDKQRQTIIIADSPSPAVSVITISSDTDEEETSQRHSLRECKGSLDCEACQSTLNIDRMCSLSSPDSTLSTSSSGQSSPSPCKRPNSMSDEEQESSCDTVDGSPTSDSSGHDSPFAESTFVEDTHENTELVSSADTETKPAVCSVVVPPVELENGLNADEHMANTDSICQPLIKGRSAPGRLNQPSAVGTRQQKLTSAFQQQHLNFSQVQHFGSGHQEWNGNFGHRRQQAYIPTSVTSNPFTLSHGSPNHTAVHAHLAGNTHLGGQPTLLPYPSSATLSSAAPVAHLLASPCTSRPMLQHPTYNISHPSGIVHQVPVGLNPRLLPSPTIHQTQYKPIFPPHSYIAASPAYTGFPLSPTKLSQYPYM

[5] = biological target: Mitogen-activated protein kinase kinase kinase 11 (Homo sapiens) (UniProt Q16584); experiment: Inhibition of recombinant human MLK3 assessed as residual activity at 1 uM using by scintillation counting based radiometry assay relative to control
[6] = biological target: CDK2/Cyclin A1 (Homo sapiens) (UniProt P24941+P78396); experiment: Inhibition of recombinant full length human CDK2/CyclinA assessed as residual activity at 1 uM using Histone H1 as substrate incubated for 40 mins in presence of [gamma-33ATP] by scintillation counting based radiometry assay relative to control; assay type: protein-complex assay
[7] = tested on: Eukaryotic elongation factor 2 kinase (Homo sapiens), O00418 [H23R]; experiment: Inhibition of recombinant human eEF-2K H23R mutant (2 to end residues) assessed as residual activity at 1 uM using RKKFGESEKTKTKEFL as substrate at 40 mins in presence of [gamma-33ATP] by scintillation counting based radiometry assay relative to control
[8] = biological target: Serine/threonine-protein kinase pim-1 (Homo sapiens) (UniProt P11309); experiment: Inhibition of recombinant full length human Pim1 assessed as residual activity at 1 uM using KKRNRTLTV as substrate measured after 40 mins in presence of [gamma33P]ATP by scintillation counting method relative to control
Serine/threonine-protein kinase pim-1 (Homo sapiens), sequence (P11309 whole entry, looked up, the tested form may be a part): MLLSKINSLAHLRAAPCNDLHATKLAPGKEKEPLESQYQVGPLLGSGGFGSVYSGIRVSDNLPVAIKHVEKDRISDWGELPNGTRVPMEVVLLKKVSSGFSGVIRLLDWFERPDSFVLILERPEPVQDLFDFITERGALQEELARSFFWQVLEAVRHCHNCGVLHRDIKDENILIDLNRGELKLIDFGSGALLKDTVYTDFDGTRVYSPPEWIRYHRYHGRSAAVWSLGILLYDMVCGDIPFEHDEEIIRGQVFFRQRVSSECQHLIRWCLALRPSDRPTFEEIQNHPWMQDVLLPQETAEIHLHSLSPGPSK

[9] = biological target: Mitogen-activated protein kinase kinase kinase kinase 2 (Homo sapiens) (UniProt Q12851); experiment: Inhibition of recombinant human GCK (1 to 473 residues) assessed as residual activity at 1 uM using myelin basic protein as substrate at 40 mins in presence of [gamma-33ATP] by scintillation counting based radiometry assay relative to control
Homo sapiens = species on record: Homo sapiens; experiment: Inhibition of recombinant full-length human ATRIP/ATR M211T mutant at 1 uM assessed as residual activity at 1 uM using GST-cMyc-p53 as substrate measured after 40 mins by fluorescence assay
[10] = biological target: Ribosomal protein S6 kinase alpha-5 (Homo sapiens) (UniProt O75582); experiment: Inhibition of recombinant human MSK1 (2 to end residues) assessed as residual activity at 1 uM using GRPRTSSFAEGKK as substrate measured after 40 mins in presence of [gamma33P]ATP by scintillation counting method relative to control
[11] = tested on: Epidermal growth factor receptor (Homo sapiens), P00533 [L861Q]; experiment: Inhibition of recombinant human EGFR L861Q mutant (696 to end residues) assessed as residual activity at 1 uM using poly(Glu, Tyr) 4:1 as substrate at 40 mins in presence of [gamma-33ATP] by scintillation counting based radiometry assay relative to control
[12] = biological target: Mast/stem cell growth factor receptor Kit (Homo sapiens) (UniProt P10721); experiment: Inhibition of recombinant human c-Kit (544 to end residues) assessed as residual activity at 1 uM using poly(Glu, Tyr) 4:1 as substrate measured after 40 mins in presence of [gamma33P]ATP by scintillation counting method
[13] = biological target: SRSF protein kinase 2 (Homo sapiens) (UniProt P78362); experiment: Inhibition of human SRPK2 (46 to end residues) assessed as residual activity at 1 uM using RSRSRSRSRSRSRSR as substrate measured after 40 mins in presence of [gamma33P]ATP by scintillation counting method relative to control
SRSF protein kinase 2 (Homo sapiens), sequence (P78362 whole entry, looked up): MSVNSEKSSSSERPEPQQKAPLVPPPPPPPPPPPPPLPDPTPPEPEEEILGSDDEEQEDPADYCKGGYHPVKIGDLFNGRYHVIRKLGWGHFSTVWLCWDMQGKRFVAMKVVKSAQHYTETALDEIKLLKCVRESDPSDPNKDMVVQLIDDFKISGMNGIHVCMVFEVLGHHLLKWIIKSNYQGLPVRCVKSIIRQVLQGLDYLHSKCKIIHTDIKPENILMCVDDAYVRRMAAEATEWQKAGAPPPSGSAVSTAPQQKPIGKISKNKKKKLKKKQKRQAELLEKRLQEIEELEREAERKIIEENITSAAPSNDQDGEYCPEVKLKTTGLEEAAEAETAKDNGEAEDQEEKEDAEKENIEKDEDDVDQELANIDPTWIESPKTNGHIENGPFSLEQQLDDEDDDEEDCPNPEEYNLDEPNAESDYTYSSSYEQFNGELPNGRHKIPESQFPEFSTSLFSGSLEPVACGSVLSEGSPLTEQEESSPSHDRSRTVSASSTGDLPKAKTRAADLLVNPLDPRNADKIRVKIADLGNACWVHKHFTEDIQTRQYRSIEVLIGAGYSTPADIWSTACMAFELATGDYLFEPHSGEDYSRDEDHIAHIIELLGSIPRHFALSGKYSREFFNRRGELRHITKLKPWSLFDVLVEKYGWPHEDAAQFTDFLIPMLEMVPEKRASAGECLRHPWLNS

[14] = tested on: Mast/stem cell growth factor receptor Kit (Homo sapiens), P10721 [V560G]; experiment: Inhibition of recombinant human C-Kit V560G mutant (544 to end residues) assessed as residual activity at 1 uM poly(Glu, Tyr) 4:1 as substrate incubated 40 mins in presence of [gamma-33ATP] by scintillation counting based radiometry assay relative to control
[15] = tested on: Angiopoietin-1 receptor (Homo sapiens), Q02763 [Q939H,Q940H]; experiment: Inhibition of human Tie2 Q939H/Q940H mutant (771 to end residues) assessed as residual activity at 1 uM using poly(Glu, Tyr) 4:1 as substrate measured after 40 mins in presence of [gamma33P]ATP by scintillation counting method relative to control
Angiopoietin-1 receptor (Homo sapiens), Q02763 [Q939H,Q940H], sequence (Q02763 whole entry Q939H/Q940H, the tested form may be a part): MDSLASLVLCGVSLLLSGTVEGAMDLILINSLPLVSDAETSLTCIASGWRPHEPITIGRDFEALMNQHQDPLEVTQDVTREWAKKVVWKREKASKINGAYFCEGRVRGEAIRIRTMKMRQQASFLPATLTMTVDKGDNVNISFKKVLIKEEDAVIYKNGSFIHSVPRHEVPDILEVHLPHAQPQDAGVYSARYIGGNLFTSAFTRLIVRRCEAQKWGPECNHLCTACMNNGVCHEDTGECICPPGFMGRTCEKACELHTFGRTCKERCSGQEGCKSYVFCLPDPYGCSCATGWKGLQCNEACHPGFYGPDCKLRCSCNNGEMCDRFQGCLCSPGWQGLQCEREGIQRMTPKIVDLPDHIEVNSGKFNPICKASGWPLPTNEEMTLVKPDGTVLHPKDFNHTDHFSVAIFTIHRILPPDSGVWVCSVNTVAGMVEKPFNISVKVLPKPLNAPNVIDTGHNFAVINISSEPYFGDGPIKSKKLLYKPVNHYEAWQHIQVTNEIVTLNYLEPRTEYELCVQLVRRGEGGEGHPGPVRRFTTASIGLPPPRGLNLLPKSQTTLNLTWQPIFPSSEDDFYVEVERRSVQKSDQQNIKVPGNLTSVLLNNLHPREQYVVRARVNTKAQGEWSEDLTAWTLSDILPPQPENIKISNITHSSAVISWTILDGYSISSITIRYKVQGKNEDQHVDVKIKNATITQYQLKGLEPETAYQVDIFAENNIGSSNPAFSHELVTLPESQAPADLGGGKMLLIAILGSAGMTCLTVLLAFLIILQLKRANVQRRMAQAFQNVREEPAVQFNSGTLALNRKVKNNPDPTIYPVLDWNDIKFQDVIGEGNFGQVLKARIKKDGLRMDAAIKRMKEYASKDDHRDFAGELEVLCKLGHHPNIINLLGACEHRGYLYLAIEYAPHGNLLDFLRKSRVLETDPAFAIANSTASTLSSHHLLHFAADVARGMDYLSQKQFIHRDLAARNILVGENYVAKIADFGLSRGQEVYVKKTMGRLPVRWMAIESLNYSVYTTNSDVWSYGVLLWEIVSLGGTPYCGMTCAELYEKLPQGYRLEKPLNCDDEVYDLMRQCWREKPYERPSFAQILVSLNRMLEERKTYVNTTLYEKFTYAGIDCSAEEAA

[16] = biological target: Activated CDC42 kinase 1 (Homo sapiens) (UniProt Q07912); experiment: Inhibition of human ACK1 (1 to 389 residues) assessed as residual activity at 1 uM using EFPIYDFLPAKKK as substrate incubated for 40 mins in presence of [gamma-33ATP] by scintillation counting based radiometry assay relative to control
Activated CDC42 kinase 1 (Homo sapiens), sequence (Q07912 whole entry, looked up, the tested form may be a part): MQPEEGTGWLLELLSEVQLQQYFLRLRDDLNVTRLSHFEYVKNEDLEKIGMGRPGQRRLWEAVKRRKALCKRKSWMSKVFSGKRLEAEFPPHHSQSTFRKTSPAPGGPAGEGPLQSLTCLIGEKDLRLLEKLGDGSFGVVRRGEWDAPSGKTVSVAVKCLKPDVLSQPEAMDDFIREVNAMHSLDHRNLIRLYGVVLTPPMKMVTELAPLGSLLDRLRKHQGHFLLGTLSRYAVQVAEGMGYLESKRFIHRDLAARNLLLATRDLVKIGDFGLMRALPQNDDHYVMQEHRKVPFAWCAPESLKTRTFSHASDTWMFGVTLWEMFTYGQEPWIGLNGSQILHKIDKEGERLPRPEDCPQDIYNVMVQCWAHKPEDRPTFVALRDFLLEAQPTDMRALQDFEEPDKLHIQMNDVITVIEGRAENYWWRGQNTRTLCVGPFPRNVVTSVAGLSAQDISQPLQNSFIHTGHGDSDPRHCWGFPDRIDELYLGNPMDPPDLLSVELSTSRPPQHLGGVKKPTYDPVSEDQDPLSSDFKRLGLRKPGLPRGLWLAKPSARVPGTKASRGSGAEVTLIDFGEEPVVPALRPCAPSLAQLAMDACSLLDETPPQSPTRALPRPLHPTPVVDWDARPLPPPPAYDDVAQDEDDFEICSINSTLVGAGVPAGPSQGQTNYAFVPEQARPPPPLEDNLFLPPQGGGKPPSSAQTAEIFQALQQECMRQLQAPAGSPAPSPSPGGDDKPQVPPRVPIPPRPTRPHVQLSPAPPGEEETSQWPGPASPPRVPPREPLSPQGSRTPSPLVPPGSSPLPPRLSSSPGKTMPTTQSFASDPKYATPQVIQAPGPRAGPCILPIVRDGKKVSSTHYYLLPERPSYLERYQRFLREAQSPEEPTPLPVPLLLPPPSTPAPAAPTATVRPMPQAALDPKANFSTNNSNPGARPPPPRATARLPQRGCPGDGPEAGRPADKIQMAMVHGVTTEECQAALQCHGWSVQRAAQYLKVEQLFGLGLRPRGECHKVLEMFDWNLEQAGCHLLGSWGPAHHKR

[17] = biological target: 5'-AMP-activated protein kinase catalytic subunit alpha-2 (Homo sapiens) (UniProt P54646); experiment: Inhibition of recombinant full length human AMPKalpha2 assessed as residual activity at 1 uM using AMARAASAAALAR as substrate incubated for 40 mins in presence of [gamma-33ATP] by scintillation counting based radiometry assay relative to control
5'-AMP-activated protein kinase catalytic subunit alpha-2 (Homo sapiens), sequence (P54646 whole entry, looked up): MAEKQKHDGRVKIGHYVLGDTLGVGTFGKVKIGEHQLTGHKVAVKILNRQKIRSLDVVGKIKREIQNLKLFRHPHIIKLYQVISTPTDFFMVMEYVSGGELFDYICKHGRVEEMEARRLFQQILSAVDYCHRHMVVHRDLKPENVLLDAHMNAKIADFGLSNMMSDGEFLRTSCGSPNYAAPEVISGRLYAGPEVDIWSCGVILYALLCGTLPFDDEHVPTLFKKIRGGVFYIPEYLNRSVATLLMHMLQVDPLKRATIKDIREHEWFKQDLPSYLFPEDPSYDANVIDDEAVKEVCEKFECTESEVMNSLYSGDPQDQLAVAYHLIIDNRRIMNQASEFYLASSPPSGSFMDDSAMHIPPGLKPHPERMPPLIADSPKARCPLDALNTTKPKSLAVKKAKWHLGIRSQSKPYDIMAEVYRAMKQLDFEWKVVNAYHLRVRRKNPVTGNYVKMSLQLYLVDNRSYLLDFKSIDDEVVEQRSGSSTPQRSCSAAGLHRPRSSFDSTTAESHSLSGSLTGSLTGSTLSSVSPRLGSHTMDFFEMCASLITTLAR

[18] = tested on: Serine/threonine-protein kinase A-Raf (Homo sapiens), P10398 [Y301D,Y302D]; experiment: Inhibition of recombinant human A-Raf Y301D/Y302D mutant (273 to end residues) assessed as residual activity at 1 uM using myelin basic protein as substrate incubated for 40 mins in presence of [gamma-33ATP] by scintillation counting based radiometry assay relative to control
[19] = tested on: Hepatocyte growth factor receptor (Homo sapiens), P08581 [Y1230C]; experiment: Inhibition of recombinant human MET A1209G/V1290L/Y1248C mutant (974 to end residues) assessed as residual activity at 1 uM using KKKGQEEEYVFIE as substrate incubated for 40 mins in presence of [gamma-33ATP by scintillation counting based radiometry assay relative to control
[20] = tested on: Hepatocyte growth factor receptor (Homo sapiens), P08581 [M1250T]; experiment: Inhibition of recombinant human MET A1209G/V1290L/M1268T mutant (974 to end residues) assessed as residual activity at 1 uM using KKKGQEEEYVFIE as substrate incubated for 40 mins in presence of [gamma-33ATP by scintillation counting based radiometry assay relative to control

Row | SMILES | Activity [1] [%] | Activity [2] [%] | Activity [3] [%] | Activity [4] [%] | Activity [5] [%] | Activity [6] [%] | Activity [7] [%] | Activity [8] [%] | Activity [9] [%] | Activity (Homo sapiens) [%] | Activity [10] [%] | Activity [11] [%] | Activity [12] [%] | Activity [13] [%] | Activity [14] [%] | Activity [15] [%] | Activity [16] [%] | Activity [17] [%] | Activity [18] [%] | Activity [19] [%] | further results
1 | C=CCOC(=O)c1cc(-c2ccc(/C=C3/NC(=S)NC3=O)o2)ccc1Cl | 90 | 86 | 99 | 7 | 89 | 54 | 98 | 21 | 89 | 102 | 100 | 106 | 101 | 99 | 100 | 107 | 96 | 33 | 111 | 114 | Activity [20]: 101%
2 | N=C1NC(=O)/C(=C\c2ccc(-c3cccc([N+](=O)[O-])c3)o2)S1 | 61 | 89 | 106 | 2 | 96 | 61 | 95 | 9 | 81 | 111 | 95 | 85 | 112 | 82 | 92 | 113 | 93 | 44 | 105 | 98 | Activity [20]: 82%
